{
  "source": "ChEMBL document CHEMBL4354827",
  "about": "“Discovery of Novel, Potent, Brain-Permeable, and Orally Efficacious Positive Allosteric Modulator of α7 Nicotinic Acetylcholine Receptor [4-(5-(4-Chlorophenyl)-4-methyl-2-propionylthiophen-3-yl)benzenesulfonamide]: Structure-Activity Relationship and Preclinical Characterization” (J Med Chem, 2020)",
  "key": {"Rattus norvegicus [1]": {"system": "Rattus norvegicus", "assay": "Memory enhancement effect in time-delay induced Wistar rat model of amnesia assessed as exploration time for object1 in acquisition trial at 0.5 mg/kg, po for 7 days and measured on day 8 by novel object recognition test (reference value: 13.73 sec)", "format": "functional"}, "Rattus norvegicus [2]": {"system": "Rattus norvegicus", "assay": "Improvement in social recognition time delay-induced Sprague-Dawley rat model of amnesia assessed as reduction in recognition index at 0.15 mg/kg, po for 7 days and measured on day 9 (reference value: 1.05)", "format": "functional"}, "[3]": {"target": "Neuronal acetylcholine receptor subunit alpha-7 (Homo sapiens, UniProt P36544)", "sequence (P36544 whole entry)": "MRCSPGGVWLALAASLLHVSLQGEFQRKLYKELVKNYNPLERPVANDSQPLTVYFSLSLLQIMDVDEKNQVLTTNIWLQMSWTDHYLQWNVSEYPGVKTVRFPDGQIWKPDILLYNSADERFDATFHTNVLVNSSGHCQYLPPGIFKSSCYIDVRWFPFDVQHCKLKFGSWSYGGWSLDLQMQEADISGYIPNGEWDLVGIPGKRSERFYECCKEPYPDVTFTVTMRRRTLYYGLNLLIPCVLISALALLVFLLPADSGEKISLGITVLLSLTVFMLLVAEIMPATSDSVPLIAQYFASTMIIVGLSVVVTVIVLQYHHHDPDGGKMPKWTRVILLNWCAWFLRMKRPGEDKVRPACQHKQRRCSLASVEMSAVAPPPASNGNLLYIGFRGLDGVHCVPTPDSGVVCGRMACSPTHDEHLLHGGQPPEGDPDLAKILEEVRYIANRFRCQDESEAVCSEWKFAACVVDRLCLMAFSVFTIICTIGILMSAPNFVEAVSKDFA", "assay": "Positive allosteric modulatory activity against alpha7 nAChR in human IMR-32 cells assessed as potentiation of PNU-282987-induced Ca2+ […] at 1 uM by FLIPR assay relative to control", "format": "cell-based"}, "Rattus norvegicus [4]": {"system": "Rattus norvegicus", "assay": "Memory enhancement effect in scopolamine-induced Wistar rat model of amnesia assessed as increase in discrimination index at 0.05 mg/kg, po for 7 days and measured on day 8 by novel object recognition test (reference value: 0.21)", "format": "functional"}, "Rattus norvegicus [5]": {"system": "Rattus norvegicus", "assay": "Memory enhancement effect in scopolamine-induced Wistar rat model of amnesia assessed as increase in exploration time for novel object in retention trial at 0.5 mg/kg, po administered as single dose and measured on day 9 by novel object recognition test (reference value: 12.09 sec)", "format": "functional"}, "Rattus norvegicus [6]": {"system": "Rattus norvegicus", "assay": "Memory enhancement effect in scopolamine-induced Wistar rat model of amnesia assessed as exploration time for object1 in acquisition trial at 0.15 mg/kg, po administered as single dose and measured on day 8 by novel object recognition test (reference value: 16.11 sec)", "format": "functional"}, "Rattus norvegicus [7]": {"system": "Rattus norvegicus", "assay": "Memory enhancement effect in time-delay induced Wistar rat model of amnesia assessed as exploration time for object2 in acquisition trial at 3 mg/kg, po administered as single dose and measured on day 8 by novel object recognition test (reference value: 16.33 sec)", "format": "functional"}, "Rattus norvegicus [8]": {"system": "Rattus norvegicus", "assay": "Improvement in social recognition time delay-induced Sprague-Dawley rat model of amnesia assessed as increase in reduction in social investigation time at 0.50 mg/kg, po for 7 days and measured on day 9 (reference value: -0.5%)", "format": "functional", "design": "scale not given: the % may be the effect or the level left"}, "Rattus norvegicus [9]": {"system": "Rattus norvegicus", "assay": "Memory enhancement effect in scopolamine-induced Wistar rat model of amnesia assessed as exploration time for object2 in acquisition trial at 0.15 mg/kg, po administered as single dose and measured on day 8 by novel object recognition test (reference value: 15.63 sec)", "format": "functional"}, "Rattus norvegicus [10]": {"system": "Rattus norvegicus", "assay": "Memory enhancement effect in scopolamine-induced Wistar rat model of amnesia assessed as increase in novel object discrimination index at 0.05 mg/kg, po administered as single dose and measured on day 9 by novel object recognition test (reference value: 0.21)", "format": "functional"}, "[11]": {"assay": "Drug concentration in Wistar rat brain at 10 mg/kg, po after 24 hrs by LC-MS/MS analysis", "format": "ADME, organism-based", "settings": "read-out: Drug uptake; call rule not given here"}, "Rattus norvegicus [12]": {"system": "Rattus norvegicus", "assay": "Memory enhancement effect in scopolamine-induced Wistar rat model of amnesia assessed as increase in discrimination index at 0.5 mg/kg, po for 7 days and measured on day 8 by novel object recognition test (reference value: 0.21)", "format": "functional"}, "Rattus norvegicus [13]": {"system": "Rattus norvegicus", "assay": "Improvement in social recognition time delay-induced Sprague-Dawley rat model of amnesia assessed as reduction in recognition index at 0.50 mg/kg, po for 7 days and measured on day 9 (reference value: 1.05)", "format": "functional"}, "Rattus norvegicus [14]": {"system": "Rattus norvegicus", "assay": "Memory enhancement effect in time-delay induced Wistar rat model of amnesia assessed as exploration time for familiar object in retention trial at 0.5 mg/kg, po for 7 days and measured on day 8 by novel object recognition test (reference value: 10.20 sec)", "format": "functional"}, "Rattus norvegicus [15]": {"system": "Rattus norvegicus", "assay": "Memory enhancement effect in time-delay induced Wistar rat model of amnesia assessed as exploration time for object2 at 1 mg/kg, po administered as single dose after acquisition trial by novel object recognition test (reference value: 21.07 sec)", "format": "functional"}, "Rattus norvegicus [16]": {"system": "Rattus norvegicus", "assay": "Memory enhancement effect in scopolamine-induced Wistar rat model of amnesia assessed as exploration time for object2 in acquisition trial at 0.15 mg/kg, po for 7 days and measured on day 8 by novel object recognition test (reference value: 15.63 sec)", "format": "functional"}, "[17]": {"assay": "Cmax in Wistar rat at 1 mg/kg, iv after 0.083 to 144 hrs by LC-MS/MS analysis", "format": "ADME, organism-based", "design": "dose 1 mg/kg, route intravenous", "settings": "in vivo"}, "[18]": {"assay": "AUCt in Wistar rat brain at 10 mg/kg, po after 1 to 144 hrs by LC-MS/MS analysis", "format": "ADME, organism-based"}, "Rattus norvegicus [19]": {"system": "Rattus norvegicus", "assay": "Memory enhancement effect in time-delay induced Wistar rat model of amnesia assessed as exploration time for familiar object at 1 mg/kg, po administered as single dose after acquisition trial by novel object recognition test (reference value: 10.6 sec)", "format": "functional"}, "[20]": {"assay": "AUClast in Beagle dog at 10 mg/kg, po after 0.25 to 144 hrs by LC-MS/MS analysis", "format": "ADME, organism-based, Canis lupus familiaris", "design": "time upper 144 hr, dose 10 mg/kg, time lower 0.25 hr, route oral", "settings": "in vivo"}, "Rattus norvegicus [21]": {"system": "Rattus norvegicus", "assay": "Memory enhancement effect in time-delay induced Wistar rat model of amnesia assessed as exploration time for object1 at 1 mg/kg, po administered as single dose after acquisition trial by novel object recognition test (reference value: 19.09 sec)", "format": "functional"}, "Rattus norvegicus [22]": {"system": "Rattus norvegicus", "assay": "Memory enhancement effect in time-delay induced Wistar rat model of amnesia assessed as exploration time for object2 in acquisition trial at 1 mg/kg, po administered as single dose and measured on day 8 by novel object recognition test (reference value: 16.33 sec)", "format": "functional"}, "[23]": {"assay": "Drug level in scopolamine-induced Sprague-Dawley rat brain at 0.05 mg/kg, po for 7 days", "format": "ADME, organism-based", "settings": "read-out: Drug uptake"}, "[24]": {"assay": "Drug level in Wistar rat plasma at 0.05 mg/kg, po", "format": "ADME, organism-based", "settings": "in vivo"}, "Rattus norvegicus [25]": {"system": "Rattus norvegicus", "assay": "Memory enhancement effect in time-delay induced Wistar rat model of amnesia assessed as exploration time for familiar object in retention trial at 3 mg/kg, po administered as single dose and measured on day 9 by novel object recognition test (reference value: 13.05 sec)", "format": "functional"}, "Rattus norvegicus [26]": {"system": "Rattus norvegicus", "assay": "Memory enhancement effect in time-delay induced Wistar rat model of amnesia assessed as exploration time for object2 in acquisition trial at 0.5 mg/kg, po for 7 days and measured on day 8 by novel object recognition test (reference value: 11.76 sec)", "format": "functional"}, "Rattus norvegicus [27]": {"system": "Rattus norvegicus", "assay": "Memory enhancement effect in scopolamine-induced Wistar rat model of amnesia assessed as exploration time for novel object in retention trial at 0.15 mg/kg, po for 7 days and measured on day 8 by novel object recognition test (reference value: 12.09 sec)", "format": "functional"}, "[28]": {"assay": "Volume of distribution at steady state in BALB/c mouse at 1 mg/kg, iv after 0.083 to 144 hrs by LC-MS/MS analysis", "format": "ADME, organism-based", "settings": "in vivo, read-out: Vdss"}, "Rattus norvegicus [29]": {"system": "Rattus norvegicus", "assay": "Memory enhancement effect in scopolamine-induced Wistar rat model of amnesia assessed as exploration time for object2 in acquisition trial at 0.05 mg/kg, po for 7 days and measured on day 8 by novel object recognition test (reference value: 15.63 sec)", "format": "functional"}, "Cytochrome P450 2D6": {"target": "Cytochrome P450 2D6 (Homo sapiens, UniProt P10635)", "sequence (P10635 whole entry)": "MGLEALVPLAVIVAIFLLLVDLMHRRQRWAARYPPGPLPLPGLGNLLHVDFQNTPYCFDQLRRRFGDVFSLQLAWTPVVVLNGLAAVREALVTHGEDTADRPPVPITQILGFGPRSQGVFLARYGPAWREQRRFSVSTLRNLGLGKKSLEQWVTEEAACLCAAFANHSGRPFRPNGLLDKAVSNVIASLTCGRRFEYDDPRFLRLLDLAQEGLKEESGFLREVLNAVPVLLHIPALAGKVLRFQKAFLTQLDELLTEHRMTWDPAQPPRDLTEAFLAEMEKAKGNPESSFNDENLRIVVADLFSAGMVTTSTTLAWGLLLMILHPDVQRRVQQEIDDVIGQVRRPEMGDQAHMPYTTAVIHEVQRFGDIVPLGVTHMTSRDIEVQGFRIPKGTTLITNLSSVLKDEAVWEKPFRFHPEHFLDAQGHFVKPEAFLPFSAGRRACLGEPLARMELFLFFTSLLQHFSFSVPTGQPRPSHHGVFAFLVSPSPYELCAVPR", "assay": "Inhibition of CYP2D6 (unknown origin) up to 10 uM", "format": "ADME"}, "[30]": {"assay": "Protein binding in mouse plasma at 5 uM incubated for 16 hrs under shaking condition by LC/MS/MS based rapid equilibrium dialysis method", "format": "ADME, cell-free", "settings": "read-out: PPB (converted)"}},
  "data": [
    {"smiles": "CCC(=O)c1sc(-c2ccc(Cl)cc2)c(C)c1-c1ccc(S(N)(=O)=O)cc1", "values": [
      {"measurement": "Time", "setting": "Rattus norvegicus [1]", "value": 10.04, "unit": "s"},
      {"measurement": "Activity_index", "setting": "Rattus norvegicus [2]", "value": 0.56},
      {"measurement": "fold change (FC)", "setting": "[3]", "value": 22},
      {"measurement": "Activity_index", "setting": "Rattus norvegicus [4]", "value": 0.3},
      {"measurement": "Time", "setting": "Rattus norvegicus [5]", "value": 15.06, "unit": "s"},
      {"measurement": "Time", "setting": "Rattus norvegicus [6]", "value": 14.08, "unit": "s"},
      {"measurement": "Time", "setting": "Rattus norvegicus [7]", "value": 19.43, "unit": "s"},
      {"measurement": "Activity", "setting": "Rattus norvegicus [8]", "value": 46.16, "unit": "%"},
      {"measurement": "Time", "setting": "Rattus norvegicus [9]", "value": 13.41, "unit": "s"},
      {"measurement": "Activity_index", "setting": "Rattus norvegicus [10]", "value": 0.3},
      {"measurement": "concentration at 24 h", "setting": "[11]", "value": 6520, "unit": "nM"},
      {"measurement": "Activity_index", "setting": "Rattus norvegicus [12]", "value": 0.45},
      {"measurement": "Activity_index", "setting": "Rattus norvegicus [13]", "value": 0.54},
      {"measurement": "Time", "setting": "Rattus norvegicus [14]", "value": 4.9, "unit": "s"},
      {"measurement": "Time", "setting": "Rattus norvegicus [15]", "value": 25.36, "unit": "s"},
      {"measurement": "Time", "setting": "Rattus norvegicus [16]", "value": 13.41, "unit": "s"},
      {"measurement": "Cmax", "setting": "[17]", "value": 1100, "unit": "nM"},
      {"measurement": "AUC(0-t)", "setting": "[18]", "value": 301, "unit": "µM·h"},
      {"measurement": "Time", "setting": "Rattus norvegicus [19]", "value": 11.94, "unit": "s"},
      {"measurement": "AUC(0-t)", "setting": "[20]", "value": 282, "unit": "µM·h"},
      {"measurement": "Time", "setting": "Rattus norvegicus [21]", "value": 20.6, "unit": "s"},
      {"measurement": "Time", "setting": "Rattus norvegicus [22]", "value": 23.96, "unit": "s"},
      {"measurement": "concentration at 168 h", "setting": "[23]", "value": 250, "unit": "nM"},
      {"measurement": "concentration", "setting": "[24]", "value": 40, "unit": "nM"},
      {"measurement": "Time", "setting": "Rattus norvegicus [25]", "value": 8.92, "unit": "s"},
      {"measurement": "Time", "setting": "Rattus norvegicus [26]", "value": 12.42, "unit": "s"},
      {"measurement": "Time", "setting": "Rattus norvegicus [27]", "value": 12.8, "unit": "s"},
      {"measurement": "Vd", "setting": "[28]", "value": 4, "unit": "L/kg"},
      {"measurement": "Time", "setting": "Rattus norvegicus [29]", "value": 18.31, "unit": "s"},
      {"measurement": "inhibition (INH)", "setting": "Cytochrome P450 2D6", "value": "Not Active"},
      {"measurement": "fraction unbound at 16 h, 5 µM", "setting": "[30]", "value": 0.0116}
    ]}
  ]
}
